This is an account of results in patent EP4775208A1, “USE OF PRMT5 INHIBITOR IN TREATMENT OF TUMORS OR CANCERS” (Apeiron Therapeutics (Hong Kong) Ltd., priority 2023, dated 2025).

One may read the IC50 as the point on the concentration scale where inhibition reaches its midpoint. Read a low IC50 as greater potency.

One data set concerns U87MG MTAP(-/-) cells. The data set is described as follows: Inhibition of proliferation of U87MG MTAP(-/-) cells (CellTiter-Glo). Type of data set: cell-based. The following applies: Homo sapiens, U-87 MG, 144 h, cell proliferation, 6 days. The method, boiled down: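 U87MG MTAP(-/-) cells in log phase, seeded overnight, then exposed 6 days at 37 °C, 5% CO2 to compound at 10,000 nM top, 3-fold dilutions, 10 points, 0.5% DMSO final. Viability read by CellTiter-Glo luminescence.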
On the technique in general: Cellular ATP, detected with luciferase, serves as a proxy for viable cell number.

For the next data set, the system named is SW780. Put plainly: Mini cell panel: inhibition of proliferation of SW780 cells. Type of data set: cell-based. An excerpt: (§1) Test 9: Mini Cell Panel: Assay for Inhibitory Activity of Compounds against Proliferation of 20 Tumor Cell Lines
(§2) Materials and Cells: Fifteen MTAP(-/-) cell lines and five MTAP wild-type cell lines were purchased from ATCC (USA). Cell culture media, fetal bovine serum (FBS), and penicillin-streptomycin were purchased from Thermo Fisher Scientific (USA). 384-well plates were purchased from PerkinElmer (USA). The CellTiter-Glo assay kit was purchased from Promega (USA). Paclitaxel was used as the control compound.

The next data set relates to Ht 1080. The data set is described as follows: Mini cell panel: inhibition of proliferation of Ht 1080 cells. The data set is classed as cell-based.
From the text: as §1
Materials and Cells: Fifteen MTAP(-/-) cell lines and five MTAP wild-type cell lines were purchased from ATCC (USA). Cell culture media, fetal bovine serum (FBS), and penicillin-streptomycin were purchased from Thermo Fisher Scientific (USA). 384-well plates were purchased from PerkinElmer (USA). The CellTiter-Glo assay kit was purchased from Promega (USA). […]

The test system of another data set is MKN-45. Put plainly: Mini cell panel: inhibition of proliferation of MKN-45 cells. Type of data set: cell-based.
From the text: as §1, §2

A further data set has as its system ACHN. Put plainly: Mini cell panel: inhibition of proliferation of ACHN cells. The data set is classed as cell-based. The following applies: MTAP (-/-).
From the text: as §1, §2

The test system of another data set is A549. The data set is described as follows: Mini cell panel: inhibition of proliferation of A549 cells. The data set is classed as cell-based.
From the text: as §1, §2

Another data set deals with NCI-H647. The data set is described as follows: Mini cell panel: inhibition of proliferation of NCI-H647 cells. The data set is classed as cell-based.
From the text: as §1, §2

Another data set deals with SW1573. The data set is described as follows: Mini cell panel: inhibition of proliferation of SW1573 cells. The data set is classed as cell-based.
From the text: as §1, §2

In a further data set the test system is DOHH-2. The data set is described as follows: Mini cell panel: inhibition of proliferation of DOHH-2 cells. Type of data set: cell-based.
From the text: as §1, §2

For another data set, the system named is PSN-1. Put plainly: Mini cell panel: inhibition of proliferation of PSN-1 cells. Type of data set: cell-based.
From the text: as §1, §2

The test system of another data set is SU-DHL-10. Put plainly: Mini cell panel: inhibition of proliferation of SU-DHL-10 cells. The data set is classed as cell-based.
From the text: as §1, §2

In a further data set the test system is SU-DHL-4. The data set is described as follows: Mini cell panel: inhibition of proliferation of SU-DHL-4 cells. Type of data set: cell-based.
From the text: as §1, §2

For a further data set, the system named is CFPAC-1. Put plainly: Mini cell panel: inhibition of proliferation of CFPAC-1 cells. Type of data set: cell-based.
From the text: as §1, §2

A short description of data set [1]: Mouse pharmacokinetic experiment (IV and PO, plasma). Type of data set: in vivo, ICR male mice. The settings on record: ICR mice; for bioavailability: male, mouse, read-out: Bioavailability F (%); for bioavailability / AUClast: plasma. On the procedure: II. Mouse Pharmacokinetic Experiment
The compounds used in this experiment are specific embodiments of the present invention, with reference to compound AMG473 as an example from Amgen's patent WO 2022/169948A1, identified as example 473.
ICR male mice, N=3/group; sourced from Zhejiang Vital River Laboratory Animal Technology Co., Ltd.
3. Drug Preparation and Administration
Single oral (PO) administration to ICR mice: Compounds were dissolved in dimethyl sulfoxide, added to polyethylene glycol 400 and sterile water, and then adjusted to a clear solution with a small amount of 1 mol/L hydrochloric acid. After overnight fasting, the mice were orally gavaged with a dose of 10 mg/kg. Single intravenous (IV) administration to ICR mice: Compounds were dissolved in dimethyl sulfoxide, added to polyethylene glycol 400 and sterile water, and then adjusted to a clear solution with a small amount of 1 mol/L hydrochloric acid. After overnight fasting, the mice received tail vein injections with a dose of 3 mg/kg.
Approximately 30 µL/time point blood samples were collected via the tail vein. Potassium ethylenediaminetetraacetate was used as an anticoagulant, and samples were centrifuged at 4000 g/min for 5 minutes at 4°C within 1 hour. Blood sampling time points were 0.0833 (IV), 0.25, 0.5, 1, 2, 4, 6, 8, 24 hours. Samples were stored in a -20°C freezer.
Plasma samples (30µL, 10µL sample + 20µL blank plasma) were mixed with 200µL ice-cold acetonitrile containing internal standards. After vortexing for 30 seconds, samples were centrifuged at 4000g/min for 20 minutes. One hundred microliters of the supernatant were transferred to a 96-well plate, followed by the addition of 200µL ultrapure water. After vortexing for 30 seconds, 5µL or 10µL were injected into LC-MS/MS for analysis. Table 7: Pharmacokinetic Data

The test system of a further data set is LU99 MTAP(-/-) cells. The data set is described as follows: Inhibition of proliferation of LU99 MTAP(-/-) cells (CellTiter-Glo). Type of data set: cell-based. The following applies: cell proliferation, 6 days. On the procedure:
Test 3: Compound's inhibitory activity on proliferation of LU99 MTAP (-/-) cells.
Materials and Cells: The LU99 MTAP(-/-) cell line was purchased from Cobioer Biosciences (China). Cell culture media and fetal bovine serum (FBS) were purchased from Thermo Fisher Scientific (USA). 384-well plates were purchased from PerkinElmer (USA). The CellTiter-Glo assay kit was purchased from Promega (USA).
Cell Culture: LU99 MTAP(-/-) cells were cultured in a medium supplemented with 10% fetal bovine serum (FBS) at 37°C with 5% CO2. Only cells in the logarithmic growth phase were used for experiments.
Cell Proliferation Inhibition Assay: The antiproliferative activity of the compounds against LU99 MTAP(-/-) cells was assessed using the CellTiter-Glo assay kit. Cell suspensions were adjusted to the appropriate density and seeded into 384-well plates at a volume of 40 µL per well, then incubated overnight at 37°C with 5% CO2. Compounds (40 nL) were added to each well to achieve final concentrations ranging from 0 to 1,000 nM (starting concentration 1,000 nM, 2.5-fold serial dilutions, 10 dose points), with a final DMSO concentration of 0.2%. The cell plates were incubated at 37°C with 5% CO2 for 6 days. Subsequently, 40 µL of CellTiter-Glo reagent was added to measure cell viability.

[2] abbreviates: Homo sapiens, SW780, MTAP (-/-).
[3] abbreviates: Homo sapiens, HT-1080, MTAP (-/-).
Setting [4] is: Homo sapiens, MKN-45, MTAP (-/-).
The mark [5] stands for this setting: Homo sapiens, NCI-H647, MTAP (-/-).
[6] abbreviates: Homo sapiens, SW1573, MTAP (-/-).
Where [7] appears, read: Homo sapiens, DOHH-2, MTAP (-/-).
The mark [8] stands for this setting: Homo sapiens, SU-DHL10, MTAP Wild type.
[9] abbreviates: Homo sapiens, SU-DHL-4, MTAP Wild type.
[10] abbreviates: Homo sapiens, CFPAC-1, MTAP Wild type.

As to `CN(C(=O)c1cc2c(cn1)nc(N)c1cncn12)[C@@H]1COc2cc(C(F)(F)F)ccc21` [Example 4, (S)-4-amino-N-methy 1-N-(6-(trifluoromethy 1)-2,3-dihydrobenzofuran-3-yl)imidazo[1,5-a]pyrido[3,4-e]pyrazine-8-carboxamide], the IC50 in the data set with U87MG MTAP(-/-) cells was determined as 93.1 nM; in the data set with SW780 (setting [2]) it was 0.177 µM; in the data set on Ht 1080 (setting [3]), 0.0024 µM; in the data set on MKN-45 (setting [4]), 0.0178 µM; in the data set on ACHN (Homo sapiens, ACHN), 0.0047 µM; in the data set on A549 (Homo sapiens, A549, MTAP (-/-)), 0.0202 µM. Further, the IC50 in the data set on NCI-H647 (setting [5]) stood at 0.016 µM; in the data set with SW1573 (setting [6]), 0.662 µM; in the data set on DOHH-2 (setting [7]), 0.0193 µM; in the data set on PSN-1 (Homo sapiens, PSN1, MTAP (-/-)) it was 0.0126 µM; with SU-DHL-10 (setting [8]), 1.3 µM; in the data set with SU-DHL-4 (setting [9]) it was 1.26 µM. This compound gave an IC50 with CFPAC-1 (setting [10]) of 0.407 µM. In data set [1] (PO(10mg/kg) vs IV(3mg/kg)), the bioavailability was found to be 77%.
Consider `[2H]C([2H])([2H])N(C(=O)c1ccc2nc(N)c3cncn3c2c1)[C@@H]1COc2cc(C(F)(F)F)ccc21` [Example 16, (S)-4-amino-N-(methyl-d3)-N-(6-(trifluoromethyl)-2,3-dihydrobenzofuran-3-yl)imidaz o[1,5-a]quinoxaline-8-carboxamide], for which the IC50 with LU99 MTAP(-/-) cells (Homo sapiens, Lu-99, 144 h) stood at 12.9 nM; in the data set with U87MG MTAP(-/-) cells, 70.8 nM. The bioavailability in [1] (PO(10mg/kg) vs IV(3mg/kg)) came out at 131%.
On the same counts, the results for `[2H]C([2H])([2H])N(C(=O)c1cc2c(cc1F)nc(N)c1cncn12)[C@@H]1COc2cc(C(F)(F)F)ccc21` [Example 41, (S)-4-amino-7-fluoro-N-(methyl-d3)-N-(6-(trifluoromethyl)-2,3-di hydrobenzofuran-3-yl)imidazo[1,5-a]quinox aline-8-carboxamide] are 9.56 nM, 58.5 nM and 257%.
On to `CN(C(=O)c1ccc2nc(N)c3cncn3c2c1)[C@@H]1COc2cc(C(F)(F)F)ccc21` [Example 107, (S)-4-amino-N-methy 1-N-(6-(trifluoromethy 1)-2,3-dihydrobenzofuran-3-yl)imidazo[1,5-a]quinoxaline-8-carboxamide], for which the 50% inhibitory concentration (IC50) is 13.2 nM with LU99 MTAP(-/-) cells (Homo sapiens, Lu-99, 144 h); 111 nM in the data set on U87MG MTAP(-/-) cells; 0.21 µM in the data set with SW780 (setting [2]); 0.0104 µM in the data set with Ht 1080 (setting [3]); 0.0431 µM in the data set on MKN-45 (setting [4]); 0.0027 µM with ACHN (Homo sapiens, ACHN). Besides, the IC50 is 0.0691 µM in the data set with A549 (Homo sapiens, A549, MTAP (-/-)); 0.03 µM in the data set with NCI-H647 (setting [5]); 0.0444 µM in the data set with SW1573 (setting [6]); 0.0332 µM in the data set with DOHH-2 (setting [7]); 0.0309 µM with PSN-1 (Homo sapiens, PSN1, MTAP (-/-)); 1.7 µM in the data set with SU-DHL-10 (setting [8]). Besides, the IC50 in the data set on SU-DHL-4 (setting [9]) is 3.1 µM; in the data set with CFPAC-1 (setting [10]), 0.781 µM. Also, the bioavailability in data set [1] (PO(10mg/kg) vs IV(3mg/kg)) worked out at 119%.
As for “(S)-4-amino-7-fluoro-N-methyl-N-(6-(triflu oromethyl)-2,3-dihydr obenzofuran-3-yl)imi dazo[1,5-a]quinoxalin e-8-carboxamide [Example 29]”, the 50% inhibitory concentration (IC50) is 10.7 nM with LU99 MTAP(-/-) cells; 0.66 µM with SW780 (MTAP (-/-)); 0.0367 µM in the data set on Ht 1080 (MTAP (-/-)); 0.0398 µM in the data set with MKN-45 (MTAP (-/-)); 0.0029 µM in the data set with ACHN; 0.0085 µM in the data set with A549 (MTAP (-/-)). For the same compound, the IC50 in the data set with NCI-H647 (MTAP (-/-)) is 0.0416 µM; in the data set on SW1573 (MTAP (-/-)), 0.0473 µM; with DOHH-2 (MTAP (-/-)), 0.0116 µM; in the data set on PSN-1 (MTAP (-/-)), 0.0241 µM; in the data set with SU-DHL-10 (MTAP Wild type), 1.59 µM; in the data set with SU-DHL-4 (MTAP Wild type) it was over 10 µM. In the data set on CFPAC-1 (MTAP Wild type), this compound gave a half-maximal inhibitory concentration (IC50) of 1.06 µM. In addition, the “T1/2” value amounted to 4.38 h in data set [1] (IV(3mg/kg)) and 4.16 h in [1] (PO(10mg/kg)). Moreover, the “AUClast” value stood at 12925 ng·h/mL in data set [1] (IV(3mg/kg)) and 43906 ng·h/mL in data set [1] (PO(10mg/kg)). Besides, the “Bioavailability F (%)” value in [1] (PO(10mg/kg) vs IV(3mg/kg)) was determined as 102%.
